Consider 1 substance from paper PMC9583845, “Characterization of the chicken melanocortin 5 receptor and its potential role in regulating hepatic glucolipid metabolism” (Frontiers in Physiology, 2022).

The test system of assay [1] is primary chicken hepatocytes. The assay can be described thus: Triglyceride content, primary chicken hepatocytes. Format: cell-based. To be noted: 24 h, normalized to protein, Figure 7E. How it is done:
(§1) To evaluate the effect of ACTH1-39 on chicken liver, the chicken hepatocytes were prepared and maintained as a monolayer culture. Briefly, one-month-old male chicken hepatocytes were isolated by perfusion of a liver with Ca^2+-free KRB buffer to remove blood cells, and being digested with 0.25% collagenase-I for 10 min. Hepatocytes were obtained following filtering and washing using M199 medium. Then the hepatocytes were plated in a Corning CellBIND 48-well microplate (Corning, NY, cat. no.3338) with M199 medium containing 100 U/ml penicillin and […] streptomycin (Gibco), 5 μg/ml bovine insulin (Sigma), and 5% FBS at 37°C in a 5% CO2 atmosphere. To adhere to the wall, the cells were incubated on the 48-well plate for 4 h.
For measurement of triglyceride content, after treated with ACTH1-39 for 24 h, hepatocytes were harvested and triglyceride (TG) content was analyzed using a commercial triglyceride content assay kit (Applygen, Beijing, China, catalog no. E1013). Results were normalized to the protein content of each sample, as determined using a BCA assay kit (Beyotime Institute of Biotechnology, China, catalog no. P0010).

The test system of assay [2] is primary chicken hepatocytes. The assay can be described thus: Glucose production from primary cultured chicken hepatocytes. To be noted: for glucose production (in words): primary chicken hepatocytes, 100 nM for 30 or 60 min, or 0.1–100 nM for 60 min, gluconeogenic substrates 20 mM lactate, 2 mM pyruvate, four independent experiments, Figures 7A,B. Format: cell-based. How it is done: as §1
Glucose production from primary cultured chicken hepatocytes was measured as previously described ([Collins et al., 2006]). Briefly, cells were washed three times with warm phosphate-buffered saline (PBS) to remove glucose, followed by treatment with 100 nM (or different concentration gradients) chicken ATCH1-39 for 30 min or 60 min in glucose-free medium containing gluconeogenic substrates (20 mM sodium lactate and 2 mM sodium pyruvate). Glucose concentration was determined with a glucose assay kit (Applygen, Beijing, China, catalog no. E1011). Briefly, the 5 µl medium was added into 195 µl reagent and incubated for 20 min at 37°C. Absorbance in 550 nm was measured in a standard glucose solution.

Another assay has as its system 7-day chickens. As to conditions: continuous administration through mini-osmotic pumps, ref Puvadolpirod and Thaxton, 2000a; cited from earlier work. The source says: Early studies have tested the effect of continuous ACTH administration in 7-day chickens ([Puvadolpirod and Thaxton, 2000a]; [Puvadolpirod and Thaxton, 2000b]; [Puvadolpirod and Thaxton, 2000c]; [Puvadolpirod and Thaxton, 2000d]; [Thaxton and Puvadolpirod, 2000]). […] A series of effects of ACT ...

Assay [3] has as its system ACACA mRNA, primary chicken hepatocytes. The assay can be described thus: ACACA mRNA in primary chicken hepatocytes, RT-qPCR. Format: cell-based. To be noted: 0.1–100 nM, 6 h, N = 4, Figure 8G, listed as not decreased. The protocol:
as §1
(§2) For quantitative real-time PCR, primary cultured chicken hepatocytes were treated with various concentrations of ACTH1-39 (or other composition) at 37°C for 6 h. The relative amount of mRNA was calculated using the comparative Ct method. Chicken β-actin gene was used as the reference gene. Amplification of specific transcripts was confirmed by analyzing the melting curve profile performed at the end of each run and by determining the size of the PCR products using agarose electrophoresis and ethidium bromide staining.
A general note: Quantitative PCR measures a nucleic acid by following its amplification.

In assay [4] the test system is primary chicken hepatocytes. The assay can be described thus: Lipid quantification by Oil Red O staining, primary cultured chicken hepatocytes. Format: cell-based. To be noted: 24 h; OD at 540 nm of isopropanol extract; N = 6; Figures 7C–D. The protocol: as §1
For lipid quantification by Oil Red O staining, after treatment with ACTH1-39 for 24 h, primary cultured chicken hepatocytes were washed with PBS and then fixed with 4% paraformaldehyde for 30 min. After PBS washing, the Oil Red O working solution was added to stain for 30 min. The stained lipids were then visualized by light microscopy after washing in PBS. To quantify the lipid content, the Oil Red O stained in the cells was extracted with isopropanol by measuring the OD value at 540 nm.

The target of a further assay is chicken MC5R + MRAP1 (Gallus gallus, UniProt O73671). Nature of the assay: pGL3-CRE-luciferase reporter assay, CHO cells co-expressing MC5R and cMRAP1. Format: cell-based. As to conditions: for effect of MRAP1 co-expression on sensitivity of MC5R: vs MC5R expressed alone. The protocol:
(§3) The expression plasmids encoding MC5R, MRAP1 and MRAP2 were established by cloning their entire open reading frame (ORF) into the pcDNA3.1 (+) expression vector (Invitrogen).
(§4) The cells were then transfected with a mixture containing 700 ng pGL3-CRE-Luciferase reporter construct, 200 ng of receptor expression plasmid (or empty pcDNA3.1 vector as a negative control), 20 ng of pRL-TK construct (containing a Renilla luciferase gene, used as an internal control), and 2 μl jetPRIME transfection reagent (Polyplus Transfection, Illkirch, France) in 200 μL buffer. […] After removal of the medium from the 96-well plate, the cells were treated with 100 μl ligand-containing medium (or ligand-free medium) for 6 h. Finally, CHO cells were lysed with 1 × passive lysis buffer for luciferase assay (Promega) and the luciferase activity of the cell lysate was measured by a Multimode Microplate Reader (TriStar LB941, EG&G Berthold, Germany) according to the manufacturer’s instruction.
(§5) All statistical analysis was performed using GraphPad Prism 9 (Graph Pad Software Inc., San Diego, CA). The dose-response curves were constructed using nonlinear regression models. Student’s test was used to compare two groups, for more than two groups one-way ANOVA was performed followed by Dunnett’s test. To validate our results, all in-vitro experiments were repeated three times, and representative data are reported.

For a further assay, the target named is chicken MC5R + MRAP2 (Gallus gallus, UniProt O73671). The assay can be described thus: pGL3-CRE-luciferase reporter assay, CHO cells co-expressing MC5R and cMRAP2. Format: cell-based. To be noted: for effect of MRAP2 co-expression on sensitivity of MC5R: vs MC5R expressed alone. How it is done:
as §3, §4, §5
In general terms: A reporter such as luciferase makes a cellular process visible.

Assay [5] concerns ELOVL6 mRNA, primary chicken hepatocytes. The assay can be described thus: ELOVL6 mRNA in primary chicken hepatocytes, RT-qPCR. Format: cell-based. As to conditions: 6 h, N = 4, Figures 8A-C. The protocol:
as §1, §2

Assay [6] deals with SCD mRNA, primary chicken hepatocytes. The assay can be described thus: SCD mRNA in primary chicken hepatocytes, RT-qPCR. Format: cell-based. As to conditions: 0.1–100 nM, 6 h, N = 4, Figure 8I, listed as not decreased. The protocol: as §1, §2
A further assay deals with chicken MC5R (Gallus gallus, UniProt O73671). The assay can be described thus: pGL3-CRE-luciferase reporter assay, CHO cells expressing chicken MC5R. As to conditions: for ability to activate / sensitivity of cMC5R (in words, ranking): CHO cells expressing cMC5R. Format: cell-based.
Description: All chemicals were purchased from Sigma-Aldrich (St. Louis, MO, United States) and the restriction enzymes were obtained from TaKaRa (Dalian, China). […] All primers used in this study were synthesized by Beijing Genome Institute (BGI, China) and listed in Supplementary Table 1.
as §3, §4, §5

chicken MC5R + MRAP2, sequence (O73671 1-325): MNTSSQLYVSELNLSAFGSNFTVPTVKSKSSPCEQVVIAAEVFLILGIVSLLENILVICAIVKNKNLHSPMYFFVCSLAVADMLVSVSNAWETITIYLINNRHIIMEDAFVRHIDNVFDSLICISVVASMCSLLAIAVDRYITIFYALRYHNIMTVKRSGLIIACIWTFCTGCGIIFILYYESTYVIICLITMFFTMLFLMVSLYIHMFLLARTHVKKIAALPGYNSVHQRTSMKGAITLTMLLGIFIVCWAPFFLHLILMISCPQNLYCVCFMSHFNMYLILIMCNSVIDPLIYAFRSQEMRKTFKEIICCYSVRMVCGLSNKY
chicken MC5R + MRAP2, sequence (A0A140B2F4 1-206 partner): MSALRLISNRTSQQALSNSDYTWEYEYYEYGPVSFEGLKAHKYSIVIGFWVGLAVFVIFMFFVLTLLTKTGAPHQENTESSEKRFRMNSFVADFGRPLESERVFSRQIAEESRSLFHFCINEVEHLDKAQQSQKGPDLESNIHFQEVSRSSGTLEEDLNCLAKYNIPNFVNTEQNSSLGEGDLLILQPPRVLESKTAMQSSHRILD
chicken MC5R + MRAP1, sequence (O73671 1-325): as the sequence (O73671 1-325) above
chicken MC5R, sequence (O73671 1-325): as above

As a reminder, the EC50 is the concentration at which the effect is half-maximal. On to “H-SYSMEHFRWGKPVGRKRRPIKVYPNGVDEESAESYPMEF-OH [ACTH1-39]”, for which the “triglyceride (TG) contents” value is on record as “decreased triglyceride contents” in assay [1] and “prominently decreased triglyceride (TG) contents” in [1] (listed as ACTH). In assay [2] (100 nM ACTH, 30 and 60 min, Figure 7A), the “time from which glucose production significantly increased” value is on record as at least 0.5 h. Besides, in assay [2] (0.1–100 nM ACTH, 60 min, Figure 7B), the “dose from which glucose production significantly increased” value was at least 1 nM. Besides, the “glucose production (in words)” value is “enhanced glucose production” in assay [2], “induction of gluconeogenesis” in assay [2] (listed as ACTH) and “significantly increased the level of glucose production” in assay [2] (listed as cACTH1-39). Further, the plasma corticosterone result in the assay with 7-day chickens is on record as “a fast rise in plasma corticosterone”. Also, in the assay with 7-day chickens, the “plasma glucose and relative liver weight” value is “an increase in plasma glucose and relative liver weight”. For the same substance, the “ACACA mRNA expression” value in [3] was “instead of ACACA, FASN and SCD”. The “lipid contents (Oil Red O staining)” value in assay [4] is reported as “lipid contents were lower in the ACTH-treat group in a dose-dependent manner”. In addition, the EC50 was found to be 2.12 ± 0.37 nM at chicken MC5R + MRAP1 (Table 1 / Figure 3, co-expressed with cMRAP1, 6 h, pGL3-CRE-luciferase, mean ± SEM of at least three independent experiments (figure: four replicates)); 3.19 ± 1.09 nM on chicken MC5R + MRAP2 (Table 1 / Figure 3, co-expressed with cMRAP2, 6 h, pGL3-CRE-luciferase, mean ± SEM of at least three independent experiments (figure: four replicates), ^a: significantly different from the parameter of MC5R, p < 0.01); 5.91 ± 1.18 nM on chicken MC5R (Table 1 / Figure 3, CHO cells, MC5R alone, 6 h, mean ± SEM of at least three independent experiments (figure: four replicates), read-out: EC50, MC5R expressed alone). Besides, the “effect of MRAP1 co-expression on sensitivity of MC5R” value at chicken MC5R + MRAP1 is listed as “did not affect the sensitivity of cMC5R to ACTH1-39”; on chicken MC5R + MRAP1 (listed as ACTH) it was “no effect on the sensitivity of chicken MC5R for ACTH”. Further, the “effect of MRAP2 co-expression on sensitivity of MC5R” value is “did not affect the sensitivity of cMC5R to ACTH1-39” at chicken MC5R + MRAP2 (α-MSH p < 0.01) and “no effect on the sensitivity of chicken MC5R for ACTH” at chicken MC5R + MRAP2 (α-MSH p < 0.01, listed as ACTH). Further, the “ELOVL6 mRNA expression” value in [5] is “dose-dependently decreased”. Besides, the “SCD mRNA expression” value in [6] was “instead of ACACA, FASN and SCD”. In addition, the “ability to activate / sensitivity of cMC5R (in words, ranking)” value was “ACTH1-39 ≈ α-MSH > β-MSH > γ-MSH” on chicken MC5R and “highest potency to activate cMC5R” at chicken MC5R (listed as ACTH).
